# According to ChEMBL document CHEMBL1159120, “2,4-Diamino-5-methyl-6-substituted arylthio-furo[2,3-d]pyrimidines as novel classical and nonclassical antifolates as potential dual thymidylate synthase and dihydrofolate reductase inhibitors” (Bioorg Med Chem, 2010):
# Experiments:
# [1] = target: T1, Dihydrofolate reductase (Mycobacterium avium, UniProt O30463)
# T1 sequence (O30463 whole entry): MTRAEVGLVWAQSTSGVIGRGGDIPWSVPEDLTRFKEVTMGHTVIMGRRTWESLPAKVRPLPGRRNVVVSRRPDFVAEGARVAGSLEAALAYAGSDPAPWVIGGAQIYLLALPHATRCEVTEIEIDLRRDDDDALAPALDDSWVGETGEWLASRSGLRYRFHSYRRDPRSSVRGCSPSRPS
# Description: Inhibition of Mycobacterium avium DHFR at 37 degC by spectrophotometry
# [2] = target: T2, Dihydrofolate reductase (Pneumocystis carinii, UniProt P16184)
# T2 sequence (P16184 whole entry): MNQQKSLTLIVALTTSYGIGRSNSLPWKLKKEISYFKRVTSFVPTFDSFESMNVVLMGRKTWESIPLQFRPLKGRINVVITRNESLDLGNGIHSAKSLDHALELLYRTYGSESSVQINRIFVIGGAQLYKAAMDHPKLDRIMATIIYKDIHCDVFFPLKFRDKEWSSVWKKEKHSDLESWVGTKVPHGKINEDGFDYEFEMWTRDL
# Description: Inhibition of Pneumocystis carinii DHFR at 37 degC by spectrophotometry
# [3] = target: T3, Dihydrofolate reductase (Rattus norvegicus, UniProt Q920D2)
# T3 sequence (Q920D2 whole entry): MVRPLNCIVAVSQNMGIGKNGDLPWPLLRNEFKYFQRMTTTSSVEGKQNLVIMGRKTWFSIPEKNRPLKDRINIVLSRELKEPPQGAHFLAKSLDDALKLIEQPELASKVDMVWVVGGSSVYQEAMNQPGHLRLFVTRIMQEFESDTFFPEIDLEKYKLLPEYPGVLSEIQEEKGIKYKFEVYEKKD
# Description: Inhibition of rat liver DHFR at 37 degC by spectrophotometry
# [4] = target: Thymidylate synthase (Homo sapiens, UniProt P04818)
# Thymidylate synthase, sequence (P04818 whole entry): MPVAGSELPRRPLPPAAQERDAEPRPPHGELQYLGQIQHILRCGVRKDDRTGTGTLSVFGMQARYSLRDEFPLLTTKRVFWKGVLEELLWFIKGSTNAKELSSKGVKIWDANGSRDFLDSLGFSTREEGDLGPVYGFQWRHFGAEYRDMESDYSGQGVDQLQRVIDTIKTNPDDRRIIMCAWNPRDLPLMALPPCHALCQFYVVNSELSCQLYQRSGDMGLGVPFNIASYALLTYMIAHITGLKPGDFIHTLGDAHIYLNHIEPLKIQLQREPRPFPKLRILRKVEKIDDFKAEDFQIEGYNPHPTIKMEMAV
# Description: Inhibition of human thymidylate synthase at 30 degC under pH 7.4 by spectrophotometry
# [5] = target: T4, Dihydrofolate reductase (Pneumocystis carinii) (UniProt P16184); test: Inhibition of Pneumocystis carinii DHFR at 20 uM under 37 degC by spectrophotometry
# T4 sequence (whole entry): T2 sequence (P16184 whole entry)
# [6] = target: T5, Dihydrofolate reductase (Rattus norvegicus) (UniProt Q920D2); test: Inhibition of rat liver DHFR at 196 uM under 37 degC by spectrophotometry
# T5 sequence (whole entry): T3 sequence (Q920D2 whole entry)
# [7] = target: T6, Bifunctional dihydrofolate reductase-thymidylate synthase (Toxoplasma gondii, UniProt Q07422)
# T6 sequence (Q07422 whole entry): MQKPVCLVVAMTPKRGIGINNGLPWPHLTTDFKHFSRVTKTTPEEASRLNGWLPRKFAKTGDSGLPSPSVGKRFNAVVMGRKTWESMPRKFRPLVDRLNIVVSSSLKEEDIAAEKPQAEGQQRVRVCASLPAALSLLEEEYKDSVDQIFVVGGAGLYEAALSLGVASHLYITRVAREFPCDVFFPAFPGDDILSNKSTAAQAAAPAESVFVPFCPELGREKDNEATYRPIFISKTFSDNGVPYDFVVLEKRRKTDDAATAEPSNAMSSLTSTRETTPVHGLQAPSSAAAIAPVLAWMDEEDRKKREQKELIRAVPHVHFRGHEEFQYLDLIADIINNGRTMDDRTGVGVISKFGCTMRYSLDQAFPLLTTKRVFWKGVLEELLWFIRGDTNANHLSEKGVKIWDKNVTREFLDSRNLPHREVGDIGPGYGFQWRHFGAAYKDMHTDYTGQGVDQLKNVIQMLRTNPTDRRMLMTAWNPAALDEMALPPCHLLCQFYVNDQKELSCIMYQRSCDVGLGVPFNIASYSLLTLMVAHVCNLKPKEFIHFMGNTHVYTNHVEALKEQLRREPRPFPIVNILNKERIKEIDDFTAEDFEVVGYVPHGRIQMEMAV
# Description: Inhibition of Toxoplasma gondii DHFR at 37 degC by spectrophotometry
# [8] = target: T7, Dihydrofolate reductase (Mycobacterium avium) (UniProt O30463); settings: 196 uM
# T7 sequence (whole entry): T1 sequence (O30463 whole entry)
# [9] = target: T6, Bifunctional dihydrofolate reductase-thymidylate synthase; remark: listed apart in the source
# [10] = target: T8, Dihydrofolate reductase (Homo sapiens, UniProt P00374)
# T8 sequence (P00374 whole entry): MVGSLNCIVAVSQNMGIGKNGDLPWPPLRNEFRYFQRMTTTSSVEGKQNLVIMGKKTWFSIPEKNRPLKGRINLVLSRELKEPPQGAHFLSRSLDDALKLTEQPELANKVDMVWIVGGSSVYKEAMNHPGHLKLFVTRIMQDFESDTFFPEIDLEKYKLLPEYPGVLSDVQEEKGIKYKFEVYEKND
# Description: Inhibition of human DHFR at 30 degC under pH 7.4 by spectrophotometry
# [11] = target: T9, Dihydrofolate reductase (Escherichia coli, UniProt P0ABQ4)
# T9 sequence (P0ABQ4 whole entry): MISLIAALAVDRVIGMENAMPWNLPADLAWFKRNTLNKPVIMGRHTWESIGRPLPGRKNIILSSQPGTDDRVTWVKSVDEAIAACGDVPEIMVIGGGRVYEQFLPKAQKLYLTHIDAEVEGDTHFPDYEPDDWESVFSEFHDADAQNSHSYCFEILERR
# Description: Inhibition of Escherichia coli DHFR at 30 degC under pH 7.4 by spectrophotometry
# [12] = target: T6, Bifunctional dihydrofolate reductase-thymidylate synthase; remark: listed apart in the source
# Description: Inhibition of Toxoplasma gondii DHFR at 30 degC under pH 7.4 by spectrophotometry
# [13] = target: T7, Dihydrofolate reductase (Mycobacterium avium); test: Inhibition of Mycobacterium avium DHFR at 31 uM under 37 degC by spectrophotometry
# [14] = target: T4, Dihydrofolate reductase (Pneumocystis carinii); test: Inhibition of Pneumocystis carinii DHFR at 31 uM under 37 degC by spectrophotometry
SMILES,IC50 [1] [µM],IC50 [2] [µM],IC50 [3] [µM],also measured
COc1ccc(Sc2oc3nc(N)nc(N)c3c2C)cc1OC,16.3,36.4,66.6,
COc1ccc(OC)c(Sc2oc3nc(N)nc(N)c3c2C)c1,61.9,24,42.2,
Cc1cccc(C(C)C)c1Sc1oc2nc(N)nc(N)c2c1C,,36.5,,
Nc1nc(N)c2c(CNc3ccc(C(=O)N[C@@H](CCC(=O)O)C(=O)O)cc3)coc2n1,,,,IC50 [4]: > 200 µM
COc1ccc(Sc2oc3nc(N)nc(N)c3c2C)cc1,25.5,34.7,61.9,
Cc1cccc(C)c1Sc1oc2nc(N)nc(N)c2c1C,,> 20,> 196,inhibition [5]: 27%; inhibition [6]: 41%; IC50 [7]: 19.7 µM; inhibition [8]: 20%
Cc1c(Sc2ccc3ccccc3c2)oc2nc(N)nc(N)c12,,> 12,> 12,IC50 [7]: > 12 µM
Cc1c(Sc2ccc(C(=O)N[C@@H](CCC(=O)O)C(=O)O)cc2)oc2nc(N)nc(N)c12,0.00973,0.078,20.5,IC50 [9]: 27 µM; IC50 [10]: 4 µM; IC50 [11]: 0.02 µM; IC50 [12]: 2.2 µM; IC50 [7]: 12 µM
Cc1c(Sc2c(Cl)cccc2Cl)oc2nc(N)nc(N)c12,,60,14.4,
Nc1nc(N)c2c(CCc3ccc(C(=O)N[C@@H](CCC(=O)O)C(=O)O)cc3)coc2n1,,,,IC50 [4]: > 200 µM
"CN(Cc1coc2nc(N)nc(N)c12)c1ccc(C(=O)N[C@@H](CCC(=O)O)C(=O)O)cc1 [FURO[2,3D]PYRIMIDINE ANTIFOLATE]",,,,IC50 [4]: > 200 µM
COc1cccc(Sc2oc3nc(N)nc(N)c3c2C)c1,28.4,25.2,51.3,
Cc1c(Sc2c(F)c(F)c(C(F)(F)F)c(F)c2F)oc2nc(N)nc(N)c12,,> 31,39.1,inhibition [13]: 8%; inhibition [14]: 39%
Cc1c(Sc2cccc3ccccc23)oc2nc(N)nc(N)c12,,8.6,> 83,IC50 [7]: > 83 µM
COc1ccccc1Sc1oc2nc(N)nc(N)c2c1C,23.9,20.3,55.6,
